Read-outs that look alike come from different tables or passages of the source.
Tests used:
[1] = system: MLKL phosphorylation in HT29-L23 human colorectal adenocarcinoma cells; test: MLKL phosphorylation high-content assay; format: cell-based; details: 6 h, necroptosis induced with TNFα, SMAC mimetic and Z-VAD, 6 h, maximal inhibition defined by Nec1s
[2] = target: T1, His-GST-TVMV-hRIPK1(1-324) (Homo sapiens, UniProt Q13546); test: biochemical; format: binding; details: HTRF probe displacement, 1 h at rt; read-out: RIPK1 IC50
T1 construct: The coding region of human RIPK1(1-324) flanked by NdeI site at 5′ end; made in house; host or cells: Spodoptera frugiperda Sf9 insect cells (baculovirus, Bac-to-Bac)
T1 sequence (Q13546 1-324): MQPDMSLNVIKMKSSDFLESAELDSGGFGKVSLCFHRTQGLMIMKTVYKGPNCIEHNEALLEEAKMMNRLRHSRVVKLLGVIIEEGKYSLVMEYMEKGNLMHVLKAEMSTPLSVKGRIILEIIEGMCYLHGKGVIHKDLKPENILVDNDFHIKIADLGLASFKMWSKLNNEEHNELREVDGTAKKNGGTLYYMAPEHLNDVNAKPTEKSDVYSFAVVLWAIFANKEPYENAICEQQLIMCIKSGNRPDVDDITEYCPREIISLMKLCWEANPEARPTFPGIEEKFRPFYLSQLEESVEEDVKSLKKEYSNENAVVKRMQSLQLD

[3] = Homo sapiens, read-out: pMLKL IC50, HT29-L23 cells
[4] = read-out: pMLKL IC50, HT29-L23 cells

SMILES | IC50 [1, 3] [nM] | IC50 [2] [nM] | IC50 [1, 4] [nM] | IC50 ([1]; HT29-L23 cells, read-out: pMLKL IC50) [nM]
Nc1nc2cc(-c3ccc(OC(F)F)c(C(=O)NCC(F)(F)[C@@H](O)c4ccc(F)cc4)c3F)ccn2n1 [Example 306, (S)-3-(2-amino-[1,2,4]triazolo[1,5-a]pyridin-7-yl)-N-(2,2-difluoro-3-(4-fluorophenyl)-3-hydroxypropyl)-6-(difluoromethoxy)-2-fluorobenzamide] | 4.2 | 11 | – | –
COC(c1ccc(F)cc1)C(F)(F)CNC(=O)c1c(C)ccc(-c2ccn3nc(N)nc3c2)c1F (single isomer, unassigned) [Example 233, 3-(2-amino-[1,2,4]triazolo[1,5-a]pyridin-7-yl)-N-(2,2-difluoro-3-(4-fluorophenyl)-3-methoxypropyl)-2-fluoro-6-methylbenzamide] | – | 2.6 | 0.5 | –
Nc1nc2cc(-c3ccc(Cl)c(C(=O)NCC(F)(F)C(O)c4cc(Cl)ccc4F)c3F)ccn2n1 (stereo not shown) [Example 180, 3-(2-amino-[1,2,4]triazolo[1,5-a]pyridin-7-yl)-6-chloro-N-(3-(5-chloro-2-fluorophenyl)-2,2-difluoro-3-hydroxypropyl)-2-fluorobenzamide] | – | 2 | 10 | –
[2H]C([2H])([2H])c1ccc(-c2ccn3nc(N)nc3c2)c(F)c1C(=O)NCC(F)(F)C(C)(O)c1ccc(F)cc1 (single isomer, unassigned) [Example 241, 3-(2-amino-[1,2,4]triazolo[1,5-a]pyridin-7-yl)-N-(2,2-difluoro-3-(4-fluorophenyl)-3-hydroxybutyl)-2-fluoro-6-(methyl-d3)benzamide] | 1.2 | 10 | – | –
Cc1ccc(C(O)C(F)(F)CNC(=O)c2c(Cl)ccc(-c3ccn4nc(N)nc4c3)c2F)cc1 (stereo not shown) [Example 173, 3-(2-amino-[1,2,4]triazolo[1,5-a]pyridin-7-yl)-6-chloro-N-(2,2-difluoro-3-hydroxy-3-(p-tolyl)propyl)-2-fluorobenzamide] | 0.9 | 0.9 | – | –
CCc1cc(F)c(-c2ccn3nc(N)nc3c2)cc1C(=O)NCC[C@H](O)c1ccc(Cl)cc1 [Example 157] | 6.7 | 3.1 | – | –
Cc1cc(F)c(-c2ccn3nc(N)nc3c2)cc1C(=O)NCC(F)(F)C(C)(O)c1ccc(Cl)cc1 (single isomer, unassigned) [Example 226, 5-(2-amino-[1,2,4]triazolo[1,5-a]pyridin-7-yl)-N-(3-(4-chlorophenyl)-2,2-difluoro-3-hydroxybutyl)-4-fluoro-2-methylbenzamide] | – | 8.3 | 2.2 | –
Nc1nc2cc(-c3ccc(Cl)c(C(=O)NCC(F)(F)C(O)c4cc(F)ccc4F)c3F)ccn2n1 (single isomer, unassigned) [Example 176, 3-(2-amino-[1,2,4]triazolo[1,5-a]pyridin-7-yl)-6-chloro-N-(3-(2,5-difluorophenyl)-2,2-difluoro-3-hydroxypropyl)-2-fluorobenzamide] | – | 0.3 | 1.9 | –
Nc1nc2cc(-c3ccc(Cl)c(C(=O)NCC(F)(F)C4(c5ccc(F)cc5)COC4)c3F)ccn2n1 [Example 245, 3-(2-amino-[1,2,4]triazolo[1,5-a]pyridin-7-yl)-6-chloro-N-(2,2-difluoro-2-(3-(4-fluorophenyl)oxetan-3-yl)ethyl)-2-fluorobenzamide] | 3.7 | 19 | – | –
Cc1ccc(-c2ccn3nc(N)nc3c2)c(F)c1C(=O)NCC(F)(F)C(N)c1ccc(F)cc1 (stereo not shown) [Example 275, N-(3-amino-2,2-difluoro-3-(4-fluorophenyl)propyl)-3-(2-amino-[1,2,4]triazolo[1,5-a]pyridin-7-yl)-2-fluoro-6-methylbenzamide] | 1.5 | 6.5 | – | –
Cc1ccc(-c2ccn3nc(N)nc3c2C)c(F)c1C(=O)NCC[C@H](O)c1ccc(Cl)cc1 (single isomer, unassigned; enantiomer 2) [Example 138] | – | 11 | – | 0.2

Source: patent US11767322B2 (BRISTOL-MYERS SQUIBB COMPANY, priority 2020, dated 2023)
